According to patent publication US9499551B2, “Substituted pyrrolo[2,3-b]pyridines for treating cancer or inflammatory diseases” (Confluence Life Sciences, Inc., priority 2014, dated 2016):

Columns and labels:
[1] = target: T1, TAK1-TAB1 (Homo sapiens, UniProt O43318); test: TAK1-TAB1 binding inhibitory potency (LanthaScreen competitive binding assay, kinase tracer-236); conditions: 10 nM TAK1-TAB1, 100 nM kinase tracer-236; read-out: TAK1-Tab Inhibition IC50
T1 sequence (O43318 with tags, fused parts or gaps limits assumed): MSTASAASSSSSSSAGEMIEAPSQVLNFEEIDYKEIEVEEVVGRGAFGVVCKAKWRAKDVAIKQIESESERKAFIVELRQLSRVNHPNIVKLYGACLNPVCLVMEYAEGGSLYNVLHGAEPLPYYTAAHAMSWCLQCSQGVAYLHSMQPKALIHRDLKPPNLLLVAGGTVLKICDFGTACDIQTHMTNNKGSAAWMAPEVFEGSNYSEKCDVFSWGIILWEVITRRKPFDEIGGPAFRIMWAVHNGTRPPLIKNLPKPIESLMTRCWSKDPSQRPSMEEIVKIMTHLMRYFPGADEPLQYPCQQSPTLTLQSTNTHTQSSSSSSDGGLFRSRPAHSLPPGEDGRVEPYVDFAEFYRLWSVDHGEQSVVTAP
In short: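 Compounds were tested for TAK1-TAB1 binding in a 384-well LanthaScreen competitive FRET assay. TAK1-TAB1 (10 nM) and Eu-anti-his antibody (2 nM) were preincubated with compound for two hours before adding 100 nM Alexa Fluor 647 kinase tracer-236. The buffer was 20 mM HEPES pH 7.5, 10 mM MgCl2, 0.01% BSA, 0.0005% Tween-20 and 2% DMSO. IC50 came from 4-parameter logistic fits of emission ratio over an 11-point series from 20 μM to 0.34 nM.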

[2] = system: IL-6 Production in Human Peripheral Blood Mononuclear Cells (PBMC); test: LPS stimulated IL-6 production in PBMC cells; type: cell-based; conditions: read-out: IL-6 Production Inhibition IC50
Method: LPS Stimulated IL-6 Production in PBMC Cells:
Lipopolysaccharide (LPS) stimulated IL-6 Production in Human Peripheral Blood Mononuclear Cells (PBMC): The cellular efficacy of compound candidates is determined using peripheral blood mononuclear cells purified from human whole blood, based upon the methods of Burnette et al. (2009) Pharmacology, 84:42-60. PBMC produce a number of cytokines (IL6, IL8, IL1β and TNFα) in response to stimulation with LPS. To induce the production of inflammatory mediators, PBMC are plated at a final concentration of 2×10^5 cells/well in a 96 well flat bottom plate in DMEM medium supplemented with 10% fetal bovine serum, 100 units/ml penicillin and 100 μg/ml streptomycin (Gibco BRL Life Technologies). Cells are treated with or without inhibitors for 1-3 hrs then stimulated with 100 ng/ml LPS (serotype 011:B4, Sigma) for an additional 3 hrs at 37° C. with 5% CO2. The supernatants are removed and stored at −20° C. until they are to be assayed. The levels of inflammatory mediators are determined using commercial MSD cytokine kits (Meso Scale Discovery) as per the manufacturer's instructions. Standard curves are based on 7 steps of 4× serial dilutions, with a wide dynamic range of 10000 pg/ml to 2.4 pg/ml, and a blank. Lower limit of detection (LLOD) is calculated at the commonly used 3× the standard deviation of the blank.

SMILES | IC50 [1] [nM] | IC50 [2] [nM]
N#Cc1ccc(-c2cnc3[nH]cc(/C=C/C(N)=O)c3n2)cc1 [Example 249, (E)-3-(2-(4-cyanophenyl)-5H-pyrrolo[2,3-b]pyrazin-7-yl)acrylamide] | ≤ 1000 | ≤ 1000
NC(=O)/C=C/c1c[nH]c2ncc(-c3ccc(N4CCCC4)nc3)cc12 [Example 250, (E)-3-(5-(6-(pyrrolidin-1-yl)pyridin-3-yl)-1H-pyrrolo[2,3-b]pyridin-3-yl)acrylamide] | ≤ 1000 | ≤ 1000
CC(=O)/C=C/c1c[nH]c2ncc(-c3cccnc3)cc12 [Example 251, (E)-4-(5-(pyridin-3-yl)-1H-pyrrolo[2,3-b]pyridin-3-yl)but-3-en-2-one] | ≤ 1000 | > 1000
NC(=O)/C=C/c1c[nH]c2ncc(-c3ccc(C(F)(F)F)cc3)cc12 [Example 252, (E)-3-(5-(4-(trifluoromethyl)phenyl)-1H-pyrrolo[2,3-b]pyridin-3-yl)acrylamide] | ≤ 1000 | ≤ 1000
NC(=O)/C=C/c1c[nH]c2ncc(-c3cc(C(F)(F)F)cc(C(F)(F)F)c3)cc12 [Example 253, (E)-3-(5-(3,5-bis(trifluoromethyl)phenyl)-1H pyrrolo[2,3-b]pyridin-3-yl)acrylamide] | ≤ 1000 | ≤ 1000
Cc1cc(-c2cnc3[nH]cc(/C=C/C(N)=O)c3c2)cc(C(C)(C)C)c1 [Example 256, (E)-3-(5-(3-(tert-butyl)-5-methylphenyl)-1H-pyrrolo[2,3-b]pyridin-3-yl)acrylamide] | ≤ 1000 | ≤ 1000
COc1cc(OC2CCCC2)cc(-c2cnc3[nH]cc(/C=C/C(N)=O)c3c2)c1 [Example 257, (E)-3-(5-(3-(cyclopentyloxy)-5-methoxyphenyl)-1H-pyrrolo[2,3-b]pyridin-3-yl)acrylamide] | ≤ 1000 | ≤ 1000
CC(C)(C)c1cc(-c2cnc3[nH]cc(/C=C/C(N)=O)c3c2)cc(C(C)(C)C)c1 [Example 258, (E)-3-(5-(3,5-di-tert-butylphenyl)-1H-pyrrolo[2,3-b]pyridin-3-yl)acrylamide] | ≤ 1000 | ≤ 1000
NC(=O)/C=C/c1c[nH]c2ncc(-c3ccncc3)cc12 [Example 259, (E)-3-(5-(pyridin-4-yl)-1H-pyrrolo[2,3-b]pyridin-3-yl)acrylamide] | ≤ 1000 | ≤ 1000
CC(C)Oc1ccc(-c2cnc3[nH]cc(/C=C/C(N)=O)c3c2)cn1 [Example 260, (E)-3-(5-(6-isopropoxypyridin-3-yl)-1H-pyrrolo[2,3-b]pyridin-3-yl)acrylamide] | ≤ 1000 | ≤ 1000
N#Cc1ccc(-c2cnc3[nH]cc(/C=C/C(N)=O)c3c2)cn1 [Example 261, (E)-3-(5-(6-cyanopyridin-3-yl)-1H-pyrrolo[2,3-b]pyridin-3-yl)acrylamide] | ≤ 1000 | ≤ 1000
NC(=O)/C=C/c1c[nH]c2ncc(-c3ccc(C(=O)N4CCCCC4)cc3)cc12 [Example 262, (E)-3-(5-(4-(piperidine-1-carbonyl)phenyl)-1H-pyrrolo[2,3-b]pyridin-3-yl)acrylamide] | ≤ 1000 | ≤ 1000
NC(=O)/C=C/c1c[nH]c2ncc(-c3cnc4ccccc4c3)nc12 [Example 263, (E)-3-(2-(quinolin-3-yl)-5H-pyrrolo[2,3-b]pyrazin-7-yl)acrylamide] | ≤ 1000 | ≤ 1000
CC(C)(C)C(=O)N1CCN(c2cnc3[nH]cc(/C=C/C(N)=O)c3c2)CC1 [Example 264, (E)-3-(5-(4-pivaloylpiperazin-1-yl)-1H-pyrrolo[2,3-b]pyridin-3-yl)acrylamide] | ≤ 1000 | ≤ 1000
CC1CCN(C(=O)c2ccc(-c3cnc4[nH]cc(/C=C/C(N)=O)c4c3)cn2)CC1 [Example 265, (E)-3-(5-(6-(4-methylpiperidine-1-carbonyl)pyridin-3-yl)-1H-pyrrolo[2,3-b]pyridin-3-yl)acrylamide] | ≤ 1000 | > 1000
CC(C)(C)OC(=O)N1CCN(c2cnc3[nH]cc(/C=C/C(N)=O)c3c2)CC1 [Example 266, (E)-tert-butyl 4-(3-(3-amino-3-oxoprop-1-en-1-yl)-1H-pyrrolo[2,3-b]pyridin-5-yl)piperazine-1-carboxylate] | ≤ 1000 | ≤ 1000
NC(=O)/C=C/c1c[nH]c2ncc(N3CCN(C(=O)c4ccccc4)CC3)cc12 [Example 267, (E)-3-(5-(4-benzoylpiperazin-1-yl)-1H-pyrrolo[2,3-b]pyridin-3-yl)acrylamide] | ≤ 1000 | > 1000
CC(C)N1CCN(C(=O)c2ccc(-c3cnc4[nH]cc(/C=C/C(N)=O)c4c3)cc2)CC1 [Example 268, (E)-3-(5-(4-(4-isopropyl-piperazine-1-carbonyl)phenyl)-1H-pyrrolo[2,3-b]pyridin-3-yl)acrylamide] | ≤ 1000 | ≤ 1000
CC(C)(C)OC(=O)NC1CN(c2cnc3[nH]cc(/C=C/C(N)=O)c3c2)C1 [Example 269, (E)-tert-butyl(1-(3-(3-amino-3-oxoprop-1-en-1-yl)-1H-pyrrolo[2,3-b]pyridin-5-yl)azetidin-3-yl)carbamate] | ≤ 1000 | ≤ 1000
NC(=O)/C=C/c1c[nH]c2ncc(-c3ccc(C(=O)NC4CC4)cc3)cc12 [Example 270, (E)-4-(3-(3-amino-3-oxoprop-1-en-1-yl)-1H-pyrrolo[2,3-b]pyridin-5-yl)-N-cyclopropyl-benzamide] | ≤ 1000 | > 1000
CCOCCN1CCN(c2cnc3[nH]cc(/C=C/C(N)=O)c3c2)CC1 [Example 271, (E)-3-(5-(4-(2-ethoxyethyl)piperazin-1-yl)-1H-pyrrolo[2,3-b]pyridin-3-yl)acrylamide] | ≤ 1000 | ≤ 1000
CC(C)Oc1cc(-c2cnc3[nH]cc(/C=C/C(N)=O)c3c2)cc(C(F)(F)F)n1 [Example 272, (E)-3-(5-(2-isopropoxy-6-(trifluoromethyl)pyridin-4-yl)-1H-pyrrolo[2,3-b]pyridin-3-yl)acrylamide] | ≤ 1000 | ≤ 1000
CN1CCN(c2cc(-c3cnc4[nH]cc(/C=C/C(N)=O)c4c3)ccn2)CC1 [Example 273, (E)-3-(5-(2-(4-methylpiperazin-1-yl)pyridin-4-yl)-1H-pyrrolo[2,3-b]pyridin-3-yl)acrylamide] | ≤ 1000 | ≤ 1000
NC(=O)/C=C/c1c[nH]c2ncc(Cc3ccc(F)cc3)cc12 [Example 274, (E)-3-(5-(4-fluorobenzyl)-1H-pyrrolo[2,3-b]pyridin-3-yl)acrylamide] | ≤ 1000 | ≤ 1000
NC(=O)/C=C/c1c[nH]c2ncc(Cc3ccc(F)cc3F)cc12 [Example 275, (E)-3-(5-(2,4-difluorobenzyl)-1H-pyrrolo[2,3-b]pyridin-3-yl)acrylamide] | ≤ 1000 | ≤ 1000
C[C@H](O)C(=O)N1CCN(c2cnc3[nH]cc(/C=C/C(N)=O)c3c2)CC1 [Example 276, (S,E)-3-(5-(4-(2-hydroxypropanoyl)piperazin-1-yl)-1H-pyrrolo[2,3-b]pyridin-3-yl)acrylamide] | ≤ 1000 | > 1000
C[C@@H](O)C(=O)N1CCN(c2cnc3[nH]cc(/C=C/C(N)=O)c3c2)CC1 [Example 277, (R,E)-3-(5-(4-(2-hydroxypropanoyl)piperazin-1-yl)-1H-pyrrolo[2,3-b]pyridine-3-yl)acrylamide] | ≤ 1000 | > 1000
NC(=O)/C=C/c1c[nH]c2ncc(N3CCN(C(=O)C4CCCC4)CC3)cc12 [Example 278, (E)-3-(5-(4-(cyclopentane-carbonyl)piperazin-1-yl)-1H-pyrrolo[2,3-b]pyridin-3-yl)acrylamide] | ≤ 1000 | > 1000
N#C/C=C/c1c[nH]c2ncc(N3CCN(C(=O)c4ccccc4)CC3)cc12 [Example 279, (E)-3-(5-(4-benzoylpiperazin-1-yl)-1H-pyrrolo[2,3-b]pyridin-3-yl)acrylonitrile] | ≤ 1000 | > 1000
CC(C)NC(=O)c1ccc(-c2cnc3[nH]cc(/C=C/C(N)=O)c3c2)cn1 [Example 280, (E)-5-(3-(3-amino-3-oxoprop-1-en-1-yl)-1H-pyrrolo[2,3-b]pyridin-5-yl)-N-isopropyl-picolinamide] | ≤ 1000 | ≤ 1000
